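How tested: cells in 96-well plates exposed to compound for 48 hours at five concentrations. Abbreviation: GI50, concentration required for 50% inhibition of growth.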 Activity calls are given as the source filed them. Cut-off read from the data, not from the text of the source: active = GI50 up to about 1.1 µM and inactive = higher.
Key:
Test in all cases: DTP human tumour cell line panel, 48 h
[1] = tested on: BT-549
[2] = tested on: COLO 205
[3] = tested on: HCT-15
[4] = tested on: IGROV-1
[5] = tested on: K562
[6] = tested on: KM12
[7] = tested on: M14
[8] = tested on: MDA-N
[9] = tested on: NCI-H522
[10] = tested on: OVCAR-3
[11] = tested on: OVCAR-5
[12] = tested on: PC-3
[13] = tested on: SF-295
[14] = tested on: SK-MEL-2
[15] = tested on: SNB-19
[16] = tested on: SR
[17] = tested on: T47D
[18] = tested on: TK-10
[19] = tested on: UACC-62
[20] = tested on: LXFL 529

SMILES	GI50 [1]	GI50 [2]	GI50 [3] [µM]	GI50 [4]	GI50 [5]	GI50 [6]	GI50 [7]	GI50 [8]	GI50 [9]	GI50 [10]	GI50 [11]	GI50 [12]	GI50 [13]	GI50 [14]	GI50 [15]	GI50 [16]	GI50 [17]	GI50 [18]	GI50 [19]	GI50 [20]
COc1ccccc1C(=O)NCC1CCCN2CCCCC12 (centres undefined)	> 100 µM (inactive)	> 100 µM (inactive)	> 100	> 100 µM (inactive)	> 100 µM (inactive)	> 100 µM (inactive)	> 100 µM (inactive)	> 100 µM (inactive)	> 100 µM (inactive)	> 100 µM (inactive)	> 100 µM (inactive)	> 100 µM (inactive)	1.24 µM (inactive)	> 100 µM (inactive)	> 100 µM (inactive)	> 100 µM (inactive)	> 100 µM (inactive)	> 100 µM (inactive)	> 100 µM (inactive)	–
Cc1cccc2c(O)cc(=O)oc12	–	–	–	> 100 µM (inactive)	> 100 µM (inactive)	> 100 µM (inactive)	> 100 µM (inactive)	–	–	> 100 µM (inactive)	> 100 µM (inactive)	–	> 100 µM (inactive)	–	> 100 µM (inactive)	> 100 µM (inactive)	–	> 100 µM (inactive)	> 100 µM (inactive)	> 100 µM (inactive)
CCn1c(=O)nc2n(-c3ccccc3)c3ccccc3nc-2c1=O	–	3.85 µM (inactive)	15.7	22.4 µM (inactive)	17.9 µM (inactive)	31.3 µM (inactive)	13.9 µM (inactive)	–	26.9 µM (inactive)	3.96 µM (inactive)	29.3 µM (inactive)	–	24.2 µM (inactive)	25 µM (inactive)	23 µM (inactive)	–	–	> 100 µM (inactive)	12.7 µM (inactive)	28.4 µM (inactive)
CCOC(=O)c1cc2c(cn1)[nH]c1cccc(N)c12	–	> 100 µM (inactive)	–	> 100 µM (inactive)	> 100 µM (inactive)	> 100 µM (inactive)	> 100 µM (inactive)	–	> 100 µM (inactive)	> 100 µM (inactive)	> 100 µM (inactive)	–	> 100 µM (inactive)	–	> 100 µM (inactive)	> 100 µM (inactive)	–	> 100 µM (inactive)	> 100 µM (inactive)	> 100 µM (inactive)
C=CCN(N=O)C(=O)NCCCC(NC(C)=O)C(=O)NCc1ccccc1 (centres undefined)	–	> 100 µM (inactive)	> 100	> 100 µM (inactive)	> 100 µM (inactive)	> 100 µM (inactive)	> 100 µM (inactive)	–	> 100 µM (inactive)	> 100 µM (inactive)	> 100 µM (inactive)	–	> 100 µM (inactive)	> 100 µM (inactive)	> 100 µM (inactive)	–	–	> 100 µM (inactive)	> 100 µM (inactive)	> 100 µM (inactive)
CC(C)(C)C(=O)Cc1cc2c(cc1C(=O)O)S(=O)(=O)NC(C(C)(C)C)=C2	–	> 100 µM (inactive)	–	–	> 100 µM (inactive)	> 100 µM (inactive)	> 100 µM (inactive)	–	> 100 µM (inactive)	> 100 µM (inactive)	> 100 µM (inactive)	–	> 100 µM (inactive)	> 100 µM (inactive)	> 100 µM (inactive)	> 100 µM (inactive)	–	> 100 µM (inactive)	> 100 µM (inactive)	> 100 µM (inactive)
O=c1[nH]c2cccccc-2c1-c1nc2ccccc2[nH]1	–	> 100 µM (inactive)	21.9	32.7 µM (inactive)	34.5 µM (inactive)	4.82 µM (inactive)	44.3 µM (inactive)	–	19.3 µM (inactive)	> 10 µM (inactive)	> 100 µM (inactive)	–	30.5 µM (inactive)	24.3 µM (inactive)	21.2 µM (inactive)	34.2 µM (inactive)	–	92.7 µM (inactive)	17.9 µM (inactive)	22.2 µM (inactive)
COc1ccccc1C(N)c1ccccc1 (centres undefined)	–	> 100 µM (inactive)	> 100	> 100 µM (inactive)	> 100 µM (inactive)	> 100 µM (inactive)	> 100 µM (inactive)	–	> 100 µM (inactive)	> 100 µM (inactive)	> 100 µM (inactive)	–	> 100 µM (inactive)	–	> 100 µM (inactive)	–	–	> 100 µM (inactive)	> 100 µM (inactive)	> 100 µM (inactive)
Cc1ccc(NC(=O)CCC(=O)C2CC(=O)CC/C2=N\NC(=O)c2cc3ccccc3cc2O)cc1C (centres undefined)	–	16.9 µM (inactive)	14.7	15.5 µM (inactive)	8.18 µM (inactive)	31.8 µM (inactive)	25.8 µM (inactive)	–	16.6 µM (inactive)	14.8 µM (inactive)	22 µM (inactive)	–	32.1 µM (inactive)	26.4 µM (inactive)	40.7 µM (inactive)	22.1 µM (inactive)	–	51.9 µM (inactive)	10.2 µM (inactive)	21.4 µM (inactive)
COc1ccc(Cc2nccc3cc(OC)c(OC)cc23)cc1	–	> 100 µM (inactive)	57.3	95.1 µM (inactive)	48 µM (inactive)	81.5 µM (inactive)	> 100 µM (inactive)	–	37.8 µM (inactive)	50.4 µM (inactive)	40.4 µM (inactive)	–	32.4 µM (inactive)	> 100 µM (inactive)	54.6 µM (inactive)	–	–	> 100 µM (inactive)	42.2 µM (inactive)	28 µM (inactive)
CCCCn1c(-c2ccccc2)cs/c1=N\N=C1C=C(C(C)(C)C)C(=O)C(C(C)(C)C)=C1	–	> 100 µM (inactive)	> 100	> 100 µM (inactive)	> 100 µM (inactive)	–	> 100 µM (inactive)	–	–	> 100 µM (inactive)	> 100 µM (inactive)	–	> 100 µM (inactive)	> 100 µM (inactive)	> 100 µM (inactive)	> 100 µM (inactive)	–	> 100 µM (inactive)	> 100 µM (inactive)	> 100 µM (inactive)
COc1ccc(C2S/C(=C\c3cc(OC)c(OC)c(OC)c3)C(=O)N2NC(=O)Cc2ccccc2)cc1 (centres undefined)	–	> 100 µM (inactive)	> 100	> 100 µM (inactive)	> 100 µM (inactive)	> 100 µM (inactive)	> 100 µM (inactive)	–	> 100 µM (inactive)	–	> 100 µM (inactive)	–	> 100 µM (inactive)	> 100 µM (inactive)	–	> 100 µM (inactive)	–	> 100 µM (inactive)	> 100 µM (inactive)	61.9 µM (inactive)
Nc1cc2c(nc3c4ccccc4c(N)cc3[n+]2-c2cccc3ccccc23)c2ccccc12.Nc1cc2c(nc3c4ccccc4ccc3[n+]2-c2cccc3ccccc23)c2ccccc12	4.11 µM (inactive)	1.93 µM (inactive)	2.97	1.71 µM (inactive)	0.448 µM (active)	1.31 µM (inactive)	2 µM (inactive)	1.87 µM (inactive)	1.25 µM (inactive)	0.593 µM (active)	7.28 µM (inactive)	0.465 µM (active)	2.2 µM (inactive)	1.57 µM (inactive)	4.56 µM (inactive)	1.24 µM (inactive)	0.687 µM (active)	0.893 µM (active)	7.89 µM (inactive)	–
Nc1ccn(CCOC(c2ccccc2)P(=O)(O)O)c(=O)n1 (centres undefined)	–	> 100 µM (inactive)	> 100	> 100 µM (inactive)	–	> 100 µM (inactive)	–	–	> 100 µM (inactive)	> 100 µM (inactive)	> 100 µM (inactive)	–	> 100 µM (inactive)	> 100 µM (inactive)	> 100 µM (inactive)	> 100 µM (inactive)	–	> 100 µM (inactive)	> 100 µM (inactive)	> 100 µM (inactive)
CC(C)(C)OC(=O)N1C2CCCC23O[C@@H]1c1cc2c(cc1C3=O)OCO2 (some centres undefined)	–	–	–	20 µM (inactive)	6.5 µM (inactive)	14.4 µM (inactive)	12.3 µM (inactive)	–	8.89 µM (inactive)	8.81 µM (inactive)	> 100 µM (inactive)	–	20.8 µM (inactive)	53.3 µM (inactive)	39.2 µM (inactive)	32.1 µM (inactive)	–	41 µM (inactive)	6.24 µM (inactive)	44.3 µM (inactive)
CCCCCCCCCCCCCCCC[N+](C)(C)Cc1ccc(C[N+](C)(C)CCCCCCCCCCCCCCCC)cc1	–	2.7 µM (inactive)	3.66	2.43 µM (inactive)	2.06 µM (inactive)	2.56 µM (inactive)	2.89 µM (inactive)	–	2.58 µM (inactive)	2.54 µM (inactive)	1.91 µM (inactive)	–	1.74 µM (inactive)	2.04 µM (inactive)	2.52 µM (inactive)	2.39 µM (inactive)	–	17.8 µM (inactive)	4.13 µM (inactive)	8.09 µM (inactive)
O=C(O)c1ccc(NS(=O)(=O)Cc2ccccc2)cc1	> 100 µM (inactive)	> 100 µM (inactive)	> 100	> 100 µM (inactive)	> 100 µM (inactive)	> 100 µM (inactive)	> 100 µM (inactive)	> 100 µM (inactive)	> 100 µM (inactive)	> 100 µM (inactive)	> 100 µM (inactive)	> 100 µM (inactive)	> 100 µM (inactive)	> 100 µM (inactive)	> 100 µM (inactive)	> 100 µM (inactive)	> 100 µM (inactive)	> 100 µM (inactive)	> 100 µM (inactive)	–
Nc1n[nH]c(N)n1 [GUANAZOLE]	> 6490 µM (inactive)	> 8990 µM (inactive)	7670	7000 µM (inactive)	7110 µM (inactive)	8890 µM (inactive)	3310 µM (inactive)	8570 µM (inactive)	2680 µM (inactive)	> 10000 µM (inactive)	4980 µM (inactive)	8510 µM (inactive)	2360 µM (inactive)	> 9790 µM (inactive)	9980 µM (inactive)	3300 µM (inactive)	> 9160 µM (inactive)	> 10000 µM (inactive)	2620 µM (inactive)	–

Source: ChEMBL document CHEMBL1201862, “PubChem BioAssay data set” (2004)
